Measurements taken from patent publication US20230285477A1, “MICROBIAL THERAPY” (BEO THERAPEUTICS, priority 2020, published 2023).

What was measured:
[1] = test system: patients; details: patients treated with allopurinol; cited from earlier work
[2] = test system: hyperuricemia mouse model; test: Hyperuricemia mouse model (high-purine diet + potassium oxonate), serum uric acid; assay type: in vivo, mice; details: FIG. 9; normal range 40-65
Description: 6-10 weeks old mice are randomly divided into groups of 10 mice as follows, using 1.0×10^8-1010 CFU for the test product: • 1) Control group • 2) Allopurinol treatment group • 3) Microbial treatment group 1: Test product is bacterial strain BEO #104 • 4) Microbial treatment group 2: Test product is bacterial strain BEO #110 • 5) Microbial treatment group 4: Test product is bacterial strain BEO #227 • 6) Microbial treatment group 6: Test product is mix of bacterial strains BEO #110+BEO #227
The control group is fed a normal diet (laboratory chow and water ad libitum) and treated with saline (0.5 ml, sodium chloride solution in water) by intragastric administration once a day. The other groups are fed a high-purine diet (laboratory high-purine chow and water ad libitum) and administered an intraperitoneal injection of potassium oxonate 300 mg/kg once a day. The microbial treatment groups are treated daily with approximately 1.0×10^9 CFU/day by intragastric administration. The strains tested all have QPS status and they are produced and formulated under laboratory conditions.
Mice are weighed day −1 for determination of mean weight of animals in the experiment and for composition of groups. […]
Serum is collected once weekly and at the end of experiment. […] Serum is analysed for uric acid concentration.

[3] = test system: uricase; test: Bacterial uricase activity (Amplex Red Uric Acid/Uricase Assay Kit); assay type: biochemical; details: mean average of all strains of the species; 2% uric acid in medium; fluorescence after 30 min; positive control 20 mM H2O2
Procedure: Bacterial strains were evaluated for uricase catalytic activity. Prior to the assay, 1/100th volume from the glycerol stocks (example 1) was added to the microtiter plate containing appropriate medium (see overview). Culturing conditions (time, temperature, medium, aerobic or anaerobic) depend on species and can be found in Table 1. Uric acid was dissolved in medium to 2% and the medium was filter sterilized (therefore uric acid was immediately present in the medium upon culturing). Growth of the bacterial strains was assessed by visual examination (the level of viscosity of the medium) before harvesting for fluorescence measurement. […]
The enzyme assay, Amplex® Red Uric Acid/Uricase Assay Kit; Catalog No. A22181; Molecular Probes, was used according to the instructions of the manufacturer. Fluorescence readouts were determined after 30 min using excitation at 530±12.5 nm and fluorescence detection at 590±17.5 nm. […]
The activity of the strains listed in Table 1 was determined, as described in Examples 2 and 3, as percentage of maximal fluorescence from positive controls (Bifidobacterium breve strain ATCC 15701 was used as positive control for the screems according to Example 2 and 20 mM H2O2 solution was used as positive control for the screems according to Example 3). […]

Uricase activity: Inhibitory activity [3] | Compound | patients treated reaching the treatment target [1] | serum urate concentration over a 23-hour treatment cycle [2]
– | Oc1ncnc2[nH]ncc12 [allopurinol] | 30-40% | large fluctuations in serum urate outside the normal range
low (low (5-30% of positive control)) | Lactobacillus plantarum | – | –
